Measurements reported in US20090298834A1, “4-(AMINOMETHYL)CYCLOHEXANAMINE DERIVATIVES AS CALCIUM CHANNEL BLOCKERS” (priority 2008, published 2009).

Columns and labels:
[1] = molecular target: T1, human α1H T-type channels (Homo sapiens, UniProt O95180); assay: T-type calcium channel block, whole cell patch clamp (α1H); type: cell-based; settings: HEK cells stably expressing human α1H; mainly non-inactivated protocol; values above 10 μM represented as 10 μM
T1 construct: expressed in transfected cells; host or cells: HEK 293
T1 sequence (O95180 whole entry): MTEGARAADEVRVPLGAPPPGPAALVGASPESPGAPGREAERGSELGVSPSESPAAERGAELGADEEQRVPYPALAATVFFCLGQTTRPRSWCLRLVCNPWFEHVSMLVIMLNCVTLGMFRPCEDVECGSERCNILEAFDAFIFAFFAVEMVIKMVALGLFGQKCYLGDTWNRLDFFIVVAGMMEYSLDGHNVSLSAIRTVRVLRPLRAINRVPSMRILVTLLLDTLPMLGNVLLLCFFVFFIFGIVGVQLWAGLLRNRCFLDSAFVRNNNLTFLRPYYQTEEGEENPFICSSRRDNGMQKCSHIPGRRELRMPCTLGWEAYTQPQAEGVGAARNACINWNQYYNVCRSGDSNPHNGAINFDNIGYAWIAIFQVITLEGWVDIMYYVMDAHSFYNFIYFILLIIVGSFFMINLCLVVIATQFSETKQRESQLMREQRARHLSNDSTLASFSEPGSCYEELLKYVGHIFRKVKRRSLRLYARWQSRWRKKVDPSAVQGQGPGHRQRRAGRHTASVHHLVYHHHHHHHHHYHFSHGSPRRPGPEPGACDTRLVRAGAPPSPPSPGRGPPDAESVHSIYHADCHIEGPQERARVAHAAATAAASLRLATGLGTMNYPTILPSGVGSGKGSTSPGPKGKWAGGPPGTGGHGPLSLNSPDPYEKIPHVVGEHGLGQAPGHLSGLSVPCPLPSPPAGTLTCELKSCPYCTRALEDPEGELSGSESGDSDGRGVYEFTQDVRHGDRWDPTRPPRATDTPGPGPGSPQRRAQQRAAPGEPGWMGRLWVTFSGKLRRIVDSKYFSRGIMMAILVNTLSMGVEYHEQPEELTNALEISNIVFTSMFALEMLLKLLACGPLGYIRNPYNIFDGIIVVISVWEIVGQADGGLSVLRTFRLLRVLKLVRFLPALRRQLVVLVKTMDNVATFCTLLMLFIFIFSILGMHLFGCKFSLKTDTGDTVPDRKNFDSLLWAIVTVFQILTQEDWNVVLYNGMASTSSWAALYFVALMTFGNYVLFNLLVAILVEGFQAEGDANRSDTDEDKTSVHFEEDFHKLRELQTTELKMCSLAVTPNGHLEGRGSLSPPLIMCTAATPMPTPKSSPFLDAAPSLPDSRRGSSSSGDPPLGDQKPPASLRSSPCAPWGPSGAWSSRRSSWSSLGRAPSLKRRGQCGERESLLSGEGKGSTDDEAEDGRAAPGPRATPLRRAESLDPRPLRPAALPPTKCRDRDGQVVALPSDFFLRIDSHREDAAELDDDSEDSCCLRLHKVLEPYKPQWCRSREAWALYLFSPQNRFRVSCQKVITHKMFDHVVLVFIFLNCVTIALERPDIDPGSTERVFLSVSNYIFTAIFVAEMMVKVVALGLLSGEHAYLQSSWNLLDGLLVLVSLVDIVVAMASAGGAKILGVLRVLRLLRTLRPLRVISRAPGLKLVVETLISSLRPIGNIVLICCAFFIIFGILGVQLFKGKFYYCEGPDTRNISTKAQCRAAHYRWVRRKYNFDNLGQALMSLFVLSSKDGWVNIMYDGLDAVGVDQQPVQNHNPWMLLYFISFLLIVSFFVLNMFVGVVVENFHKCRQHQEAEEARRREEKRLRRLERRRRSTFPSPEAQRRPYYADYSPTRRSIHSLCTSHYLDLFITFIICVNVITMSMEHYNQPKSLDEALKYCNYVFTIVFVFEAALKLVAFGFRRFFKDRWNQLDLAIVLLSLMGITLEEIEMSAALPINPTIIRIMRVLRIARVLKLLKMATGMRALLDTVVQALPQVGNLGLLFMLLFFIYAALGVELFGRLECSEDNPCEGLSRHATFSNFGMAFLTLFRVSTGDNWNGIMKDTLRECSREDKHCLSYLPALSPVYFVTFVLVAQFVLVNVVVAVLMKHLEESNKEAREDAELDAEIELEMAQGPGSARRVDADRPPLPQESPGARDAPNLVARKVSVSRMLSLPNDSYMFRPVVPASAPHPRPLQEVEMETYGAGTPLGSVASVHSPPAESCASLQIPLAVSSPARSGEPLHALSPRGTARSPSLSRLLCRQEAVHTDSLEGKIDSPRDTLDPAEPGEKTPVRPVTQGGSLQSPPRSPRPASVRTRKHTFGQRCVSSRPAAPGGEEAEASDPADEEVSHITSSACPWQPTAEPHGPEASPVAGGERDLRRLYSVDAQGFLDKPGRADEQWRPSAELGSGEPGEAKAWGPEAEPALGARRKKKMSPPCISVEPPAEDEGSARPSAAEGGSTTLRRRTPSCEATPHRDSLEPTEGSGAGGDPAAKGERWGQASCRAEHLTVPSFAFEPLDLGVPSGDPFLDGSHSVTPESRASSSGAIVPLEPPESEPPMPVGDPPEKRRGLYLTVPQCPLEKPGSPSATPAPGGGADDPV
Procedure, shortened: (§1)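 Resting block was measured mainly with the non-inactivated protocol: holding potential −110 mV, 1 s step to −100 mV, then a 50 ms test pulse at −40 mV. Recordings used stably transfected human α1G or α1H HEK293 lines, with compounds perfused in external solution containing 0.1-0.01% DMSO. IC50 values (μM) above 10 μM are reported as 10 μM.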

[2] = molecular target: T2, human α1G T-type channels (Homo sapiens, UniProt O43497); assay: T-type calcium channel block, whole cell patch clamp (α1G); type: cell-based; settings: HEK cells stably expressing human α1G; mainly non-inactivated protocol; values above 10 μM represented as 10 μM, values below 0.30 μM represented as 0.30 μM
T2 construct: expressed in transfected cells; host or cells: HEK 293
T2 sequence (O43497 whole entry): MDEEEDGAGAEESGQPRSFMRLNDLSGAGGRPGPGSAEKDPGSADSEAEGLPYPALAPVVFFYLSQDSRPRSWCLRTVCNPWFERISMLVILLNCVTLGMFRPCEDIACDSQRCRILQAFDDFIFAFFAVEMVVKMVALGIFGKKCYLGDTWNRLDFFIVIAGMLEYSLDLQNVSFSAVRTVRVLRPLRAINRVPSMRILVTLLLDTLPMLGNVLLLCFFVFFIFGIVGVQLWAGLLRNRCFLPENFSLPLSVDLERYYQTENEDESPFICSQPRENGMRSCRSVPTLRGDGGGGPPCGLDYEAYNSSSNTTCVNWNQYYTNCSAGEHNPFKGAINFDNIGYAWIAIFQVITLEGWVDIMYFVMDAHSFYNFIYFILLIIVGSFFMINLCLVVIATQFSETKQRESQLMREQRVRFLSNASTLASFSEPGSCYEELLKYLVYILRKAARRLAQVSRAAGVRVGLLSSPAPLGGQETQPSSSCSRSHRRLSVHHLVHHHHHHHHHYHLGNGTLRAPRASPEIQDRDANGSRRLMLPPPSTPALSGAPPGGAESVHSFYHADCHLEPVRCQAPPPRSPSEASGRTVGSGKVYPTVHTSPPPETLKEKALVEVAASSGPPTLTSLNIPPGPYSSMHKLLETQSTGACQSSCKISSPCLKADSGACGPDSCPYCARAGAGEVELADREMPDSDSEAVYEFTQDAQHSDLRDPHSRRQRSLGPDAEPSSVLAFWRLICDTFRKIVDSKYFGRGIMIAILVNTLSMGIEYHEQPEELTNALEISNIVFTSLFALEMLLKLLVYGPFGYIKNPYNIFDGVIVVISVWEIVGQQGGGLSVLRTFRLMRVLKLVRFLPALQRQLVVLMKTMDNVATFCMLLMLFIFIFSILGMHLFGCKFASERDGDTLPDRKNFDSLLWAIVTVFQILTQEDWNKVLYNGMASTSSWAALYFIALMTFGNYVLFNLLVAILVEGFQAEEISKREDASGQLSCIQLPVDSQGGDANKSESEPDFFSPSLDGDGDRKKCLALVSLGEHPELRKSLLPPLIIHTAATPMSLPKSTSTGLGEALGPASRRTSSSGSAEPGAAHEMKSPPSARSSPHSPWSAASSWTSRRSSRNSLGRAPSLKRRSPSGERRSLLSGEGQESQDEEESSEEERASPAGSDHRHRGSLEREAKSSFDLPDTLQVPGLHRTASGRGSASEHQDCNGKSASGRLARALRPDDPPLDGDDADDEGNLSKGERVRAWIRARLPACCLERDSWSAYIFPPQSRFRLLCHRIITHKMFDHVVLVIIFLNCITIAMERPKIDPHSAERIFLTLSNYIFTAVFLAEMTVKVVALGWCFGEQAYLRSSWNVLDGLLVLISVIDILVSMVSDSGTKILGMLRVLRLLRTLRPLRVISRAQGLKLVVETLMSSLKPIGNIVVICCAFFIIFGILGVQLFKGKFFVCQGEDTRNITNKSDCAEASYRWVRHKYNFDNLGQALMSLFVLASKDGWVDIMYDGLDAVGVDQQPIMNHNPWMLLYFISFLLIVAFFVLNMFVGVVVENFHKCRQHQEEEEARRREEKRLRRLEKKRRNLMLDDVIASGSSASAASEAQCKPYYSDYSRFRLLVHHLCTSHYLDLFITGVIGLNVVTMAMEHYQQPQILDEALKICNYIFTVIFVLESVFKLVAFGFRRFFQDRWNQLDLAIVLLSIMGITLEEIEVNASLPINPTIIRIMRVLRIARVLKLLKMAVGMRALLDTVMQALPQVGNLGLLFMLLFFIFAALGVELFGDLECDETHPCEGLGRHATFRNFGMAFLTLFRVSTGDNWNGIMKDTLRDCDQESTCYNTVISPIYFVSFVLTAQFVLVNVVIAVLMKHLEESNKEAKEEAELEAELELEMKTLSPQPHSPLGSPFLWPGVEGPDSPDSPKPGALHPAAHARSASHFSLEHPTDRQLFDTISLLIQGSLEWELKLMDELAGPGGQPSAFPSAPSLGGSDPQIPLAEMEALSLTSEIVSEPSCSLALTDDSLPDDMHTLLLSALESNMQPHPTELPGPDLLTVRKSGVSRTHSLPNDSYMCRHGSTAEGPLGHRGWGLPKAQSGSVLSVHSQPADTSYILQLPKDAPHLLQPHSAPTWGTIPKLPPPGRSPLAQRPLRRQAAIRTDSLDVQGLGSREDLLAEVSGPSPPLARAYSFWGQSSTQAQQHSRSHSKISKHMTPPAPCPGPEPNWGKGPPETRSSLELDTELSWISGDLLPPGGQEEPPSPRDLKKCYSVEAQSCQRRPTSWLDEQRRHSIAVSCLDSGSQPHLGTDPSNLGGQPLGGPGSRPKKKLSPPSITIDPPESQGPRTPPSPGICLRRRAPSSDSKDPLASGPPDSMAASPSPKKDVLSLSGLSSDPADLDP
Procedure, shortened: as §1

SMILES	IC50 [1] [nM]	IC50 [2] [nM]
CC(C)(C)C(O)CN[C@H]1CC[C@@H](CNC(=O)c2cc(F)cc(C(F)(F)F)c2)CC1 (stereo partly drawn) [Compound 2, 3-fluoro-N-((cis-4-(2-hydroxy-3,3-dimethylbutylamino)cyclohexyl)methyl)-5-(trifluoromethyl)benzamide]	550	450
Cc1ccc(-c2csc(NC(=O)C[C@H]3CC[C@@H](NC(=O)C4(c5ccccc5)CCNCC4)CC3)n2)cc1 [Compound 132, N-(cis-4-(2-oxo-2-(4-p-tolylthiazol-2-ylamino)ethyl)cyclohexyl)-4-phenylpiperidine-4-carboxamide]	≥ 10000	1090
O=C(CN[C@H]1CC[C@@H](CNC(=O)c2cc(C(F)(F)F)cc(C(F)(F)F)c2)CC1)NCC1CCCCC1 [Compound 48, N-((cis-4-(2-(cyclohexylmethylamino)-2-oxoethylamine)cyclohexyl)methyl)-3,5-bis(trifluoromethyl)benzamide]	250	350
CCC(CC)NC(=O)CN[C@H]1CC[C@@H](CNC(=O)c2cc(C(F)(F)F)cc(C(F)(F)F)c2)CC1 [Compound 42, N-((cis-4-(2-oxo-2-(pentan-3-ylamino)ethylamino)cyclohexyl)methyl)-3,5-bis(trifluoromethyl)benzamide]	120	≤ 300
CCC(CC)NC(=O)CN[C@H]1CC[C@H](CNC(=O)c2cc(C(F)(F)F)cc(C(F)(F)F)c2)CC1 [Compound 57, N-((trans-4-(2-oxo-2-(pentan-3-ylamino)ethylamino)cyclohexyl)methyl)-3,5-bis(trifluoromethyl)benzamide]	430	≤ 300
C#CC(CC)(CC)NC(=O)CN[C@H]1CC[C@@H](CNC(=O)c2cc(C(F)(F)F)cc(C(F)(F)F)c2)CC1 [Compound 47, N-((cis-4-(2-(3-ethylpent-1-yn-3-ylamino)-2-oxoethylamino)cyclohexyl)methyl)-3,5-bis(trifluoromethyl)benzamide]	10	≤ 300
COC1CCC(N(C)C(=O)CN[C@H]2CC[C@H](CNC(=O)c3cc(C(F)(F)F)cc(C(F)(F)F)c3)CC2)CC1 (stereo partly drawn) [Compound 65, N-((trans-4-(2-((4-methoxycyclohexyl)(methyl)amino)-2-oxoethylamino)cyclohexyl)methyl)-3,5-bis(trifluoromethyl)benzamide]	7360	8020
CC(C)(C)NC(=O)CN[C@H]1CC[C@H](CNC(=O)c2cc(C(F)(F)F)cc(C(F)(F)F)c2)CC1 [Compound 55, N-((trans-4-(2-(tert-butylamino)-2-oxoethylamino)cyclohexyl)methyl)-3,5-bis(trifluoromethyl)benzamide]	370	≤ 300
COc1ccc(CN[C@H]2CC[C@H](CNC(=O)c3cc(C(F)(F)F)cc(C(F)(F)F)c3)CC2)c(OC)c1 [Compound 35, N-((trans-4-(2,4-dimethoxybenzylamino)cyclohexyl)methyl)-3,5-bis(trifluoromethyl)benzamide]	770	390
CC(C)(C)NC(=O)CN[C@H]1CC[C@@H](CNC(=O)c2cc(C(F)(F)F)cc(C(F)(F)F)c2)CC1 [Compound 40, N-((cis-4-(2-(tert-butylamino)-2-oxoethylamino)cyclohexyl)methyl)-3,5-bis(trifluoromethyl)benzamide]	190	≤ 300
O=C(CN[C@H]1CC[C@@H](CNC(=O)c2cc(C(F)(F)F)cc(C(F)(F)F)c2)CC1)NCC(F)(F)F [Compound 43, N-((cis-4-(2-oxo-2-(2,2,2-trifluoroethylamino)ethylamino)cyclohexyl)methyl)-3,5-bis(trifluoromethyl)benzamide]	450	910
O=C(CN[C@H]1CC[C@@H](CNC(=O)c2cc(C(F)(F)F)cc(C(F)(F)F)c2)CC1)NN1CCCCC1 [Compound 45, N-((cis-4-(2-oxo-2-(piperidin-1-ylamino)ethylamino)cyclohexyl)methyl)-3,5-bis(trifluoromethyl)benzamide]	450	≤ 300

Next, values leading:

IC50 [1] [nM]	IC50 [2] [nM]	SMILES
260	1940	COc1cc(F)cc(C(=O)NC[C@H]2CC[C@@H](NCC(=O)NC3(C)CCC3)CC2)c1 [Compound 197, 3-fluoro-5-methoxy-N-(((1s,4s)-4-(2-(1-methylcyclobutylamino)-2-oxoethylamino)cyclohexyl)methyl)benzamide]
524	≤ 300	CC(C)(C)C(O)CN[C@H]1CC[C@@H](CC(=O)Nc2cc(C(F)(F)F)cc(C(F)(F)F)c2)CC1 (stereo partly drawn) [Compound 150, N-(3,5-bis(trifluoromethyl)phenyl)-2-(cis-4-(2-hydroxy-3,3-dimethylbutylamino)cyclohexyl)acetamide]
900	900	CC(C)(C)OC(=O)NCCN[C@H]1CC[C@@H](CNC(=O)c2cc(F)cc(C(F)(F)F)c2)CC1 [Compound 97, tert-butyl 2-(cis-4-((3-fluoro-5-(trifluoromethyl)benzamido)methyl)cyclohexylamino)ethylcarbamate]
2430	940	O=C(NC[C@H]1CC[C@@H](NC(=O)[C@@H]2C[C@@H](c3ccccc3)CN2)CC1)c1cc(C(F)(F)F)cc(C(F)(F)F)c1 [Compound 125, (2S,4S)-N-(cis-4-((3,5-bis(trifluoromethyl)benzamido)methyl)cyclohexyl)-4-phenylpyrrolidine-2-carboxamide]
230	≤ 300	CC1CCCCN1C(=O)CN[C@H]1CC[C@@H](CNC(=O)c2cc(C(F)(F)F)cc(C(F)(F)F)c2)CC1 (stereo partly drawn) [Compound 72, N-((cis-4-(2-(2-methylpiperidin-1-yl)-2-oxoethylamino)cyclohexyl)methyl)-3,5-bis(trifluoromethyl)benzamide]
350	3800	COc1cc(F)cc(C(=O)NC[C@H]2CC[C@@H](NCC(=O)N3CCCC3(C)C)CC2)c1 [Compound 199, N-(((1s,4s)-4-(2-(2,2-dimethylpyrrolidin-1-yl)-2-oxoethylamino)cyclohexyl)methyl)-3-fluoro-5-methoxybenzamide]
570	1800	CC(C)(C)NC(=O)CN[C@H]1CC[C@H](CNC(=O)c2cc(F)cc(Cl)c2)CC1 [Compound 201, N-(((1r,4r)-4-(2-(tert-butylamino)-2-oxoethylamino)cyclohexyl)methyl)-3-chloro-5-fluorobenzamide]
1230	4280	Cc1cc(F)cc(C(=O)NC[C@H]2CC[C@@H](NCC(=O)NC(C)(C)C)CC2)c1 [Compound 188, N-(((1s,4s)-4-(2-(tert-butylamino)-2-oxoethylamino)cyclohexyl)methyl)-3-fluoro-5-methylbenzamide]
1040	540	O=C(CNC[C@H]1CC[C@H](NC(=O)c2cc(C(F)(F)F)cc(C(F)(F)F)c2)CC1)Nc1ccccn1 [Compound 96, N-(trans-4-((2-oxo-2-(pyridin-2-ylamino)ethylamino)methyl)cyclohexyl)-3,5-bis(trifluoromethyl)benzamide]
≥ 10000	2890	O=C(C[C@H]1CC[C@@H](NC(=O)[C@@H]2C[C@@H](c3ccccc3)CN2)CC1)NCc1cccc(OC(F)(F)F)c1 [Compound 116, (2S,4S)-N-(cis-4-(2-oxo-2-(3-(trifluoromethoxy)benzylamino)ethyl)cyclohexyl)-4-phenylpyrrolidine-2-carboxamide]
540	1180	CN(C(=O)CN[C@H]1CC[C@H](CNC(=O)c2cc(F)cc(Cl)c2)CC1)C1(C)CCC1 [Compound 211, 3-chloro-5-fluoro-N-(((1r,4r)-4-(2-(methyl(1-methylcyclobutyl)amino)-2-oxoethylamino)cyclohexyl)methyl)benzamide]
2160	6130	CC1(C)COCCN1C(=O)CN[C@H]1CC[C@H](CNC(=O)c2cc(F)cc(Cl)c2)CC1 [Compound 203, 3-chloro-N-(((1r,4r)-4-(2-(3,3-dimethylmorpholino)-2-oxoethylamino)cyclohexyl)methyl)-5-fluorobenzamide]
820	2240	CC(C)(C)NC(=O)CN[C@H]1CC[C@@H](CNC(=O)c2cccc(Br)c2)CC1 [Compound 183, 3-bromo-N-(((1s,4s)-4-(2-(tert-butylamino)-2-oxoethylamino)cyclohexyl)methyl)benzamide]
2090	2540	O=C(CNC[C@H]1CC[C@H](NC(=O)c2cc(C(F)(F)F)cc(C(F)(F)F)c2)CC1)NCC(F)(F)F [Compound 82, N-(trans-4-((2-oxo-2-(2,2,2-trifluoroethylamino)ethylamino)methyl)cyclohexyl)-3,5-bis(trifluoromethyl)benzamide]
420	1580	COCC(C)(C)N(C)C(=O)CN[C@H]1CC[C@@H](CNC(=O)c2cc(F)cc(Cl)c2)CC1 [Compound 212, 3-chloro-5-fluoro-N-(((1s,4s)-4-(2-((1-methoxy-2-methylpropan-2-yl)(methyl)amino)-2-oxoethylamino)cyclohexyl)methyl)benzamide]
330	1030	CN(C(=O)CN[C@H]1CC[C@@H](CNC(=O)c2cc(F)cc(Cl)c2)CC1)C1(C)CCC1 [Compound 213, 3-chloro-5-fluoro-N-(((1s,4s)-4-(2-(methyl(1-methylcyclobutyl)amino)-2-oxoethylamino)cyclohexyl)methyl)benzamide]
≥ 10000	830	NC1(C(=O)N[C@H]2CC[C@H](CC(=O)Nc3cc(C(F)(F)F)cc(C(F)(F)F)c3)CC2)CCCC1 [Compound 124, 1-amino-N-(trans-4-(2-(3,5-bis(trifluoromethyl)phenylamino)-2-oxoethyl)cyclohexyl)cyclopentanecarboxamide]
